Like-named read-outs stand apart in the source and are kept apart here.
Tests used:
L1210 leukemia = assay: in vivo antitumor assay, L1210 leukemia; set-up: species or system CDF1 mice
Protocol: (§1) The antitumor activity of the present compounds has also been investigated by in vivo assays. In the assays, mice were treated for nine days in succession, starting at 24 hours after the time of tumor implant.
(§2) The results are shown in tables 4, 5 and 6 and represent the number of tumor-bearing mice surviving after administration of optimal doses of the test compound, expressed as a treatment/control (T/C×100%) ratio. In the tables, information is provided with respect to the sex, dose, weight loss of treated animals compared to control animals, and the number of survivors in groups of 6 mice.

E. coli MRE600 = assay: inhibition of bacterial growth; assay type: cell-based
Protocol: Inhibition of bacterial growth was tested in solid as well as in liquid medium. For the test on agar plates, petri dishes containing 15 ml of LB medium (10 g/l bactotryptone, 5 g/l yeast extract and 5 g/l NaCl) were covered with 5 ml of the same medium--kept melted at 40° C.--containing 40 μl of a culture of the required bacterium at approximately an A550 of 2. After solidification, 3 mm filter disks containing 4 μl of a 10 mM solution of the antibiotic in 50EtOH/DMSO were placed on the surface of the agar and the plates were incubated at 37° C. for 24 h. For the test in liquid medium, E. coli MRE600 was grown in LB medium supplemented with 0.2% of glucose to exponential phase (A560 =0.1) and distributed in 1 ml aliquots in tubes containing the required amount of antibiotic. The tubes were incubated at 37° C. for 4 h, subsequently diluted with 3 ml of 0.1% of sodium azide to stop growth and the absorption at 550 nm was measured. The absorption of the medium without addition of antibiotic was considered as 100% growth.

[1] = target: ribosomes from S. cerevisiae Y166 (peptidyl transferase activity); assay: fragment reaction, S. cerevisiae ribosomes; assay type: biochemical; settings: 50% inhibition relative to control; 0° C., 30 min, 33% methanol; read-out: ED50 Fragment reaction S. cerevisiae
Protocol: (§3) The peptidyl transferase activity was measured by the polyphenylalanine synthesis assay (Nirenberg and Matthei, Proc. Natl. Acad. Sci. USA 47 (1961) 1588), the fragment reaction (Monro, Methods Enzymol. 20 (1971) 472) and the puromycin reaction. In all the in vitro tests, i.e. polyPhe synthesis, fragment reaction and puromycin reaction, ribosomes from E. coli MRE600 and S. cerevisiae Y166 were used. The reaction mixture for polyphenylalanine synthesis was slightly different for E. coli and S. cerevisiae.
The fragment reaction was carried out in 150 μl of 33 mM Tris-HCl pH 7.4, 270 mM KCl, 13 mM magnesium acetate containing 1 mg/ml of ribosomes, 2 mM puromycin, 1 pmol of N-acetyl-[^3 H]Leu-ACCAC(U), the required concentration of sparsomycin or its analogue and 33% methanol. The reaction was initiated by the addition of the alcohol and allowed to proceed at 0° C. for 30 min, and was then stopped by the addition of 100 μl of 0.3M sodium acetate pH 5.5 saturated with MgSO4. The samples were extracted with 1.5 ml of ethyl acetate and 1 ml of the organic phase was checked for radioactivity. The 3' terminal pentanucleotide N-acetyl-[^3 H]Leu-ACCAC(U) was prepared from N-acetyl-[^3 H]Leu-tRNA by ribonuclease T1 as described by Monro.
(§4) The concentration of sparsomycin or an analog giving 50% inhibition of the protein synthesis relative to the control is given in ED50.

[2] = target: ribosomes from S. cerevisiae Y166 (peptidyl transferase activity); assay: polyphenylalanine synthesis assay, S. cerevisiae ribosomes; assay type: biochemical; settings: concentration giving 50% inhibition relative to control; 30° C., 30 min; read-out: ED50 polyPhe synthesis S. cerevisiae
Protocol: as §3
S. cerevisiae: The test was carried out as indicated above for E. coli. The phosphoenol pyruvate and pyruvate kinase were, however, replaced by creatine phosphate (20 mM) and creatine phosphokinase (50 μg/ml). The incubation was performed at 30° C. for 30 min and the samples were processed as described above. Under these conditions the control samples polymerized 5-14 and 3-8 molecules of phenylalanine per ribosome derived from E. coli and S. cerevisiae, respectively. Ribosomes and supernatant factors from E. coli and S. cerevisiae were prepared according to standard procedures, described by Staehelin and Maglott, Methods Enzymol. 20 (1971) 449, and by Sanchez-Madrid et al, Eur. J. Biochem. 98 (1979) 409.
as §4

Leukemia L 1210 cells = assay: in vitro clonogenic L1210 assay (inhibition of colony formation in soft agar); assay type: cell-based; settings: Mus musculus, L1210, 72 h, read-out: ID50 (dose giving 50% inhibition of L1210 colony formation)
Protocol: The in vitro clonogenic assay was effected in Leukemia L 1210 cells in soft agar medium (0.3%). […] In the analysis, the inhibition of the L 1210 colony formation by sparsomycin and derivatives thereof is determined for various concentrations, and the dose giving 50% inhibition of the colony formation, as compared with non-treated control cells is calculated (ID50).
From a suspension culture one hundred L 1210 cells are plated out in 35 mm culture dishes (Falcon) containing 1 ml soft agar culture medium and the compound to be investigated in suitable concentrations. The soft agar culture medium consists of Dulbecco's medium supplemented with 20% horse serum, 60 μmole 2-mercaptoethanol, 20 mg/ml L-asparagine, 75 mg/ml DEAE dextran (molecular weight 2×10^6) and 0.3% bacto agar (Difco). The culture dishes were incubated at 37° C. in an atmosphere of 10% CO2 in humidified air for 3 days. After this period of continuous exposure to the medicament the colonies were counted and dose-effect curves made. From these curves, the medicament dose is calculated which causes 50% inhibition of the colony formation as compared with non-treated control cells.

[3] = tested on: ribosomes from E. coli MRE600 (peptidyl transferase activity); assay: puromycin reaction, E. coli ribosomes; assay type: biochemical; settings: 50% inhibition relative to control; read-out: ED50 Puromycin reaction E. coli
Protocol: as §3
The puromycin reaction was carried out in 25 μl of 30 mM KCl, 50 mM NH4 Cl, 30 mM Tris-HCl pH 7.8, 20 mM MgCl2, 10 pmol of ribosomes, 100 μg/ml of poly(U) and 15 pmol of N-acetyl-[^3 H]Phe-tRNA. The reaction mixture was incubated for 30 min at 37° C. and then 1 μl of 20 mM puromycin was added and incubation was followed for 5 more min. To the samples 250 μl of 0.1M sodium carbonate and 0.7 ml of ethyl acetate were added, shaken for 1 min, centrifuged to separate the phases and 0.5 ml of the upper organic phase taken for estimating the radioactivity.
as §4

P388 leukemia = assay: in vivo antitumor assay, P388 leukemia; set-up: species or system CDF1 mice
Protocol: as §1, §2

[4] = female mice, ip daily x9, optimal dose mg/kg: sparsomycin 0.25, n-octyl 12.0, benzyl 10.0, 2a 2.5, 2e 13.3
[5] = female mice, ip daily x9, dose mg/kg: sparsomycin 0.25, n-octyl 12.0, benzyl 10.0, 2a 2.5, 2e 13.3
[6] = male mice, ip daily x9, optimal dose mg/kg: sparsomycin 0.125, n-octyl 20.0, benzyl 4.0, 2a 1.7
[7] = male mice, ip daily x9, dose mg/kg: sparsomycin 0.125, n-octyl 20.0, benzyl 4.0, 2a 1.7
[8] = female mice, ip daily x9, dose mg/kg: 2a 3.4

SMILES	T/C (survival, treatment/control x 100%) (L1210 leukemia; [4]) [%]	cures (survivors in groups of 6 mice) (L1210 leukemia; [5])	weight loss (T - C) (L1210 leukemia; [5]) [g]	T/C (survival, treatment/control x 100%) (L1210 leukemia; [6]) [%]	cures (survivors in groups of 6 mice) (L1210 leukemia; [7])	weight loss (T - C) (L1210 leukemia; male mice, ip daily x9 from 24 h after implant, dose mg/kg: sparsomycin 0.125, n-octyl 20.0, benzyl 4.0, 2a 1.7) [g]	IC50 (E. coli MRE600; Escherichia coli, MRE600, 4 h, read-out: Growth inhibition E. coli MRE600 ED50) [µM]	IC50 [1] [µM]	IC50 [2] [µM]	IC50 (Leukemia L 1210 cells) [µM]	IC50 [3] [µM]	T/C (survival, treatment/control x 100%) (P388 leukemia; female mice, ip daily x9, optimal dose mg/kg: 2a 3.4) [%]	cures (survivors in groups of 6 mice) (P388 leukemia; [8])	weight loss (T - C) (P388 leukemia; [8]) [g]	weight loss (T - C) (L1210 leukemia; mouse, in vivo, ip) [g]	IC50 (E. coli MRE600; Escherichia coli, MRE600, 4 h; read-out: Growth inhibition E. coli MRE600 ED50) [µM]	IC50 (Leukemia L 1210 cells; soft agar 0.3%, 3 days continuous exposure, vs non-treated control cells) [µM]	T/C (survival, treatment/control x 100%) (P388 leukemia; male mice, ip daily x9, optimal dose mg/kg: sparsomycin 0.125, n-octyl 22.5, benzyl 2.0, 2e 20.0) [%]	cures (survivors in groups of 6 mice) (P388 leukemia; male mice, ip daily x9, dose mg/kg: sparsomycin 0.125, n-octyl 22.5, benzyl 2.0, 2e 20.0)	weight loss (T - C) (P388 leukemia; mouse, in vivo, ip) [g]
CSC[S@+]([O-])C[C@H](C)NC(=O)/C=C/c1c(C)[nH]c(=O)[nH]c1=O [2a, (Sc Rs)-1-(methylthiomethyl)sulfinyl-2-[β-(6-methyl-5-uracilyl)acrylamido]-propane]	184	0/6	-1.4	248	2/6	-2.0	5.6	5.7	7.5	0.1	0.9	170	0/6	-2.3	–	–	–	–	–	–
CSC[S@+]([O-])C[C@H](CO)NC(=O)/C=C/c1c(C)[nH]c(=O)[nH]c1=O [Sparsomycin]	121	0/6	–	105	0/6	–	–	2.8	5.2	–	0.1	–	–	–	-1.1	11	0.4	88	0/6	-3.0
